This note sets out measurements from ChEMBL document CHEMBL1146036, “Structural determinants of opioid activity in derivatives of 14-aminomorphinones: effect of substitution in the aromatic ring of cinnamoylaminomorphinones and codeinones” (J Med Chem, 2006).

Structures are written as SMILES. Some results are limits rather than exact numbers.

The target of experiment [1] is T1, Mu-type opioid receptor (Homo sapiens, UniProt P35372). Description: Reversal of stimulation of [35S]GTP-gamma-S binding to human recombinant MOR transfected in CHO cells relative to DAMGO. It counts as functional, cell-based.
In experiment [2] the target is T2, Kappa-type opioid receptor (Homo sapiens, UniProt P41145). The conditions noted are these: CHO.
Description: Reversal of stimulation of [35S]GTPgammaS binding to human recombinant KOR transfected in CHO cells relative to U69593
Experiment [3] has as its target T1, Mu-type opioid receptor. Description: Displacement of [3H]DAMGO from human recombinant MOR expressed in CHO cells. Format: cell-based. A general note: Loss of bound radioactivity is the signal in a displacement assay; it reports binding, not function.
The target of experiment [4] is T3, Delta-type opioid receptor (Homo sapiens, UniProt P41143). The note with it: CHO.
Description: Reversal of stimulation of [35S]GTP-gamma-S binding to human recombinant DOR transfected in CHO cells relative to DPDPE
The target in experiment [5] is T3, Delta-type opioid receptor. Nature of the experiment: Displacement of [3H]Cl-DPDPE from human recombinant DOR expressed in CHO cells. Format: cell-based.
Experiment [6] deals with T2, Kappa-type opioid receptor. Description: biochemical. Format: cell-based, CHO.
Description: Displacement of [3H]U-69593 from human recombinant KOR expressed in CHO cells
Experiment [7] relates to Mus musculus. Description: Agonist activity in mouse by hot water tail withdrawal assay at 32 mg/kg, sc. It counts as functional. The note with it: route subcutaneous.
Experiment [8] relates to Mus musculus. Description: Antagonist activity against morphine-induced antinociception in sc dosed mouse by hot water tail withdrawal assay at 32 mg/kg, sc. On the set-up: scale not given: the % may be the effect or the level left. Format: functional. The conditions noted are these: route subcutaneous.
For experiment [9], the system named is Mus musculus. Nature of the experiment: Agonist activity in sc dosed mouse by tail flick assay. Format: functional. (Hot-plate and tail-flick tests time the reaction to a heat stimulus.)
The test system of experiment [10] is Mus musculus. Nature of the experiment: Antagonist activity against morphine-induced antinociception in sc dosed mouse by tail flick assay. It counts as functional.
Experiment [11] deals with Mus musculus. Nature of the experiment: Agonist activity in mouse by phenylquinone abdominal stretching assay at 30 mg/kg, sc. It counts as functional. The note with it: Abdomen, route subcutaneous.
The subject of experiment [12] is Mus musculus. Nature of the experiment: Agonist activity in mouse by phenylquinone abdominal stretching assay at 0.3 mg/kg, sc. The conditions noted are these: Abdomen, route subcutaneous. It counts as functional.

T1 sequence (P35372 whole entry): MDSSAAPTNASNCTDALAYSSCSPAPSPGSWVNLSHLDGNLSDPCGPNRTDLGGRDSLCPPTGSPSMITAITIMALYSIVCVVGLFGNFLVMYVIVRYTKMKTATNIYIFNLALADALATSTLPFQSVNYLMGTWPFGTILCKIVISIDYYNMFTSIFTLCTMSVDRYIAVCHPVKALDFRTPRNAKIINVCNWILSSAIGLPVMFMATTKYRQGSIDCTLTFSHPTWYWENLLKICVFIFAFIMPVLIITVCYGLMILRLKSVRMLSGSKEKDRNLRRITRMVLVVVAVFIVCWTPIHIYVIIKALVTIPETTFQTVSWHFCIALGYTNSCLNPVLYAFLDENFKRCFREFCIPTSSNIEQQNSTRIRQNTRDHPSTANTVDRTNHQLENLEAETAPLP
T3 sequence (P41143 whole entry): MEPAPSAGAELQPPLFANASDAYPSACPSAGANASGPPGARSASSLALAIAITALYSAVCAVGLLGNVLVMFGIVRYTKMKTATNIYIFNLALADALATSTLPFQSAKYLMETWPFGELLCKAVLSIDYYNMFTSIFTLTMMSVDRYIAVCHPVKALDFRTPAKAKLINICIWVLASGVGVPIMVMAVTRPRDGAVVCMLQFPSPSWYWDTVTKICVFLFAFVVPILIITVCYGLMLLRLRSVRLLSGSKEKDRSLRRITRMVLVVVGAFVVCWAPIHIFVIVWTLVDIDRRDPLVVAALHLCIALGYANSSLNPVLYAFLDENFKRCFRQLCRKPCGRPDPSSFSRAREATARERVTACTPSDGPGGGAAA
T2 sequence (P41145 whole entry): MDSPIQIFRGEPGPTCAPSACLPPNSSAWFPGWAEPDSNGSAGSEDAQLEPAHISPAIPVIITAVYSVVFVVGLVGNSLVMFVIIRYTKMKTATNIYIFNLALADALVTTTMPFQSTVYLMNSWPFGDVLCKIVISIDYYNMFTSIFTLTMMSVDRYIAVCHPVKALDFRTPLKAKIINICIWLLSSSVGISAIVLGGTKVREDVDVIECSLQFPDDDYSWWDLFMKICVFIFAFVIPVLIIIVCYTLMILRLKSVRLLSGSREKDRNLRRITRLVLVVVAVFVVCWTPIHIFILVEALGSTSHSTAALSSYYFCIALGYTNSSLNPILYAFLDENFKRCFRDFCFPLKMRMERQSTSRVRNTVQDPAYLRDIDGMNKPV

For `O=C(/C=C/c1ccc(Cl)cc1)N[C@@]12CCC(=O)[C@@H]3Oc4c(O)ccc5c4[C@@]31CCN(CC1CC1)[C@@H]2C5` [CLOCINNAMOX], the Ke on Mu-type opioid receptor [1] worked out at 0.53 nM; in experiment [2], 0.1 nM; in [4] it was 0.19 nM. Besides, the results for the Ki (on Mu-type opioid receptor [3]; in experiment [5]; in [6]) were 2.98 nM, 2.7 nM and 1.4 nM, respectively. For the same compound, the Activity with Mus musculus [7] is 0%; in the experiment on Mus musculus [8] it was >90%. The ED50 (in general, the midpoint of the dose-response relation) with Mus musculus [9] is > 30 mg/kg. In the experiment on Mus musculus [10], this compound showed an AD50 of 0.12 mg/kg. Further, 30 mg/kg produced 69% inhibition in vivo in the experiment on Mus musculus [11].
With `O=C(/C=C/c1ccccc1)N[C@@]12CCC(=O)[C@@H]3Oc4c(O)ccc5c4[C@@]31CCN(CC1CC1)[C@@H]2C5`, the inhibition in vivo (commonly the relative decrease from the control value, in per cent) at 0.3 mg/kg with Mus musculus [12] is 66%. The Activity is recorded as 0% with Mus musculus [7] and 40% with Mus musculus [8]. Also, in the experiment with Mus musculus [9], the 50% effective dose (ED50) is > 30 mg/kg. The AD50 in the experiment with Mus musculus [10] came out at 1.3 mg/kg.
